Results: the supplement of paper PMC10307832

Tests used:
Assay in all cases: relative viability (nuclei count vs DMSO), 5 days (fraction); higher = more cells survive
ABC-1 = system: ABC-1
Method in brief: (§1)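 Lung cancer cell lines in 1536-well plates were dosed by pin tool the day after seeding, either with one drug alone or with a fixed anchor-drug dose plus five library-drug doses (not always all listed) in √10 steps. After 5 days, cells were fixed and their nuclei stained in one step (final 0.05% Triton X-100, 1% formaldehyde, 1 ug/ml Hoechst), then counted on 4× images. Relative viability is the nuclei count in treated wells divided by that in vehicle wells. Values are medians of duplicate plates.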

COR-L23 = system: COR-L23
Method in brief: as §1

EPLC-272H = system: EPLC-272H
Method in brief: as §1

HARA = system: HARA
Method in brief: as §1

HCC-15 = system: HCC-15
Method in brief: as §1

HCC-78 = system: HCC-78
Method in brief: as §1

LC-2-ad = system: LC-2-ad
Method in brief: as §1

LU99A = system: LU99A
Method in brief: as §1

NCI-H1355 = system: NCI-H1355
Method in brief: as §1

NCI-H1651 = system: NCI-H1651
Method in brief: as §1

NCI-H1915 = system: NCI-H1915
Method in brief: as §1

NCI-H1993 = system: NCI-H1993
Method in brief: as §1

NCI-H2023 = system: NCI-H2023
Method in brief: as §1

NCI-H2085 = system: NCI-H2085
Method in brief: as §1

NCI-H2126 = system: NCI-H2126
Method in brief: as §1

NCI-H2342 = system: NCI-H2342
Method in brief: as §1

NCI-H2347 = system: NCI-H2347
Method in brief: as §1

NCI-H358 = system: NCI-H358
Method in brief: as §1

NCI-H650 = system: NCI-H650
Method in brief: as §1

NCI-H838 = system: NCI-H838
Method in brief: as §1

PC-14 = system: PC-14
Method in brief: as §1

SW 1573 = system: SW 1573
Method in brief: as §1

UMC-11 = system: UMC-11
Method in brief: as §1

For `NC(=O)Nc1cc(-c2cccc(F)c2)sc1C(=O)N[C@H]1CCCNC1` [AZD7762] + COc1cccc2cc(-c3nc([C@H]4CC[C@H](C(=O)O)CC4)n4ncnc(N)c34)[nH]c12 [OSI-027] (partner 0.5 µM), the relative viability (ABC-1; first compound 0.01 µM) was 0.469, the relative viability (ABC-1; first compound 0.03162 µM) was 0.517 and the relative viability (ABC-1; first compound 0.1 µM) was 0.414. It also gave a relative viability (ABC-1; first compound 0.3162 µM) of 0.349, a relative viability (ABC-1; first compound 1 µM) of 0.161 and a relative viability (COR-L23; first compound 0.01 µM) of 0.866. The relative viability (COR-L23; first compound 0.03162 µM) was 0.866, the relative viability (COR-L23; first compound 0.1 µM) was 0.758 and the relative viability (COR-L23; first compound 0.3162 µM) was 0.711. It also gave a relative viability (COR-L23; first compound 1 µM) of 0.285, a relative viability (EPLC-272H; first compound 0.01 µM) of 0.299 and a relative viability (EPLC-272H; first compound 0.03162 µM) of 0.332. For the same compound, the relative viability (EPLC-272H; first compound 0.1 µM) was 0.271, the relative viability (EPLC-272H; first compound 0.3162 µM) was 0.27 and the relative viability (EPLC-272H; first compound 1 µM) was 0.115. The relative viability (HARA; first compound 0.01 µM) was 0.506, the relative viability (HARA; first compound 0.03162 µM) was 0.609 and the relative viability (HARA; first compound 0.1 µM) was 0.564. The relative viability (HARA; first compound 0.3162 µM) was 0.59, the relative viability (HARA; first compound 1 µM) was 0.16 and the relative viability (HCC-15; first compound 0.01 µM) was 0.664. For the same compound, the relative viability (HCC-15; first compound 0.03162 µM) was 0.702, the relative viability (HCC-15; first compound 0.1 µM) was 0.72 and the relative viability (HCC-15; first compound 0.3162 µM) was 0.766. It also gave a relative viability (HCC-15; first compound 1 µM) of 0.64, a relative viability (HCC-78; first compound 0.01 µM) of 0.43 and a relative viability (HCC-78; first compound 0.03162 µM) of 0.452. It also gave a relative viability (HCC-78; first compound 0.1 µM) of 0.453, a relative viability (HCC-78; first compound 0.3162 µM) of 0.357 and a relative viability (HCC-78; first compound 1 µM) of 0.346. For the same compound, the relative viability (LC-2-ad; first compound 0.01 µM) was 0.911, the relative viability (LC-2-ad; first compound 0.03162 µM) was 1 and the relative viability (LC-2-ad; first compound 0.1 µM) was 0.816. It also gave a relative viability (LC-2-ad; first compound 0.3162 µM) of 0.8, a relative viability (LC-2-ad; first compound 1 µM) of 0.543 and a relative viability (LU99A; first compound 0.01 µM) of 0.323. The relative viability (LU99A; first compound 0.03162 µM) was 0.365, the relative viability (LU99A; first compound 0.1 µM) was 0.352 and the relative viability (LU99A; first compound 0.3162 µM) was 0.326. It also gave a relative viability (LU99A; first compound 1 µM) of 0.217, a relative viability (NCI-H1355; first compound 0.01 µM) of 0.389 and a relative viability (NCI-H1355; first compound 0.03162 µM) of 0.489. It also gave a relative viability (NCI-H1355; first compound 0.1 µM) of 0.515, a relative viability (NCI-H1355; first compound 0.3162 µM) of 0.443 and a relative viability (NCI-H1355; first compound 1 µM) of 0.418. For the same compound, the relative viability (NCI-H1651; first compound 0.01 µM) was 0.76, the relative viability (NCI-H1651; first compound 0.03162 µM) was 0.637 and the relative viability (NCI-H1651; first compound 0.1 µM) was 0.653. It also gave a relative viability (NCI-H1651; first compound 0.3162 µM) of 0.637, a relative viability (NCI-H1651; first compound 1 µM) of 0.193 and a relative viability (NCI-H1915; first compound 0.01 µM) of 0.629. The relative viability (NCI-H1915; first compound 0.03162 µM) was 0.635, the relative viability (NCI-H1915; first compound 0.1 µM) was 0.64 and the relative viability (NCI-H1915; first compound 0.3162 µM) was 0.638. The relative viability (NCI-H1915; first compound 1 µM) was 0.571, the relative viability (NCI-H1993; first compound 0.01 µM) was 0.577 and the relative viability (NCI-H1993; first compound 0.03162 µM) was 0.591. It also gave a relative viability (NCI-H1993; first compound 0.1 µM) of 0.58, a relative viability (NCI-H1993; first compound 0.3162 µM) of 0.532 and a relative viability (NCI-H1993; first compound 1 µM) of 0.525. For the same compound, the relative viability (NCI-H2023; first compound 0.01 µM) was 0.405, the relative viability (NCI-H2023; first compound 0.03162 µM) was 0.331 and the relative viability (NCI-H2023; first compound 0.1 µM) was 0.216. For the same compound, the relative viability (NCI-H2023; first compound 0.3162 µM) was 0.116, the relative viability (NCI-H2023; first compound 1 µM) was 0.105 and the relative viability (NCI-H2085; first compound 0.01 µM) was 0.603. It also gave a relative viability (NCI-H2085; first compound 0.03162 µM) of 0.871, a relative viability (NCI-H2085; first compound 0.1 µM) of 0.836 and a relative viability (NCI-H2085; first compound 0.3162 µM) of 0.765. For the same compound, the relative viability (NCI-H2085; first compound 1 µM) was 0.554, the relative viability (NCI-H2126; first compound 0.01 µM) was 0.735 and the relative viability (NCI-H2126; first compound 0.03162 µM) was 0.772. It also gave a relative viability (NCI-H2126; first compound 0.1 µM) of 0.783, a relative viability (NCI-H2126; first compound 0.3162 µM) of 0.871 and a relative viability (NCI-H2126; first compound 1 µM) of 0.807. It also gave a relative viability (NCI-H2342; first compound 0.01 µM) of 0.612, a relative viability (NCI-H2342; first compound 0.03162 µM) of 0.714 and a relative viability (NCI-H2342; first compound 0.1 µM) of 0.611. It also gave a relative viability (NCI-H2342; first compound 0.3162 µM) of 0.586, a relative viability (NCI-H2342; first compound 1 µM) of 0.588 and a relative viability (NCI-H2347; first compound 0.01 µM) of 0.433. The relative viability (NCI-H2347; first compound 0.03162 µM) was 0.529, the relative viability (NCI-H2347; first compound 0.1 µM) was 0.412 and the relative viability (NCI-H2347; first compound 0.3162 µM) was 0.395. The relative viability (NCI-H2347; first compound 1 µM) was 0.356, the relative viability (NCI-H358; first compound 0.01 µM) was 0.956 and the relative viability (NCI-H358; first compound 0.03162 µM) was 0.838. For the same compound, the relative viability (NCI-H358; first compound 0.1 µM) was 0.839, the relative viability (NCI-H358; first compound 0.3162 µM) was 0.75 and the relative viability (NCI-H358; first compound 1 µM) was 0.461. The relative viability (NCI-H650; first compound 0.01 µM) was 0.549, the relative viability (NCI-H650; first compound 0.03162 µM) was 0.542 and the relative viability (NCI-H650; first compound 0.1 µM) was 0.537. For the same compound, the relative viability (NCI-H650; first compound 0.3162 µM) was 0.509, the relative viability (NCI-H650; first compound 1 µM) was 0.614 and the relative viability (NCI-H838; first compound 0.01 µM) was 0.429. It also gave a relative viability (NCI-H838; first compound 0.03162 µM) of 0.374, a relative viability (NCI-H838; first compound 0.1 µM) of 0.415 and a relative viability (NCI-H838; first compound 0.3162 µM) of 0.413. It also gave a relative viability (NCI-H838; first compound 1 µM) of 0.297, a relative viability (PC-14; first compound 0.01 µM) of 0.847 and a relative viability (PC-14; first compound 0.03162 µM) of 0.816. For the same compound, the relative viability (PC-14; first compound 0.1 µM) was 0.734, the relative viability (PC-14; first compound 0.3162 µM) was 0.287 and the relative viability (PC-14; first compound 1 µM) was 0.0799. The relative viability (SW 1573; first compound 0.01 µM) was 0.69, the relative viability (SW 1573; first compound 0.03162 µM) was 0.65 and the relative viability (SW 1573; first compound 0.1 µM) was 0.742. It also gave a relative viability (SW 1573; first compound 0.3162 µM) of 0.422, a relative viability (SW 1573; first compound 1 µM) of 0.176 and a relative viability (UMC-11; first compound 0.01 µM) of 0.484. For the same compound, the relative viability (UMC-11; first compound 0.03162 µM) was 0.442, the relative viability (UMC-11; first compound 0.1 µM) was 0.43 and the relative viability (UMC-11; first compound 0.3162 µM) was 0.33. It also gave a relative viability (UMC-11; first compound 1 µM) of 0.241.
